These results are taken from ChEMBL document CHEMBL3046026, “Evaluation of the curative and protectant activity of fungicides and fungicide-adjuvant mixtures on Phomopsis cane and leaf spot of grape: A controlled environment study” (2007).

Assay [1] relates to Diaporthe ampelina. Briefly: Antifungal activity against Diaporthe ampelina infected grape plant assessed as decrease in lesions on leaf at 1.19 kg a.i./ha incubated for 48 hr prior to treatment with 24 hr wetness period followed by 24 hr of drying period measured after 4 weeks relative to control in presence of regulaid. The class given is functional, organism-based.
Assay [2] has as its system Diaporthe ampelina. The experiment in a line: Antifungal activity against Diaporthe ampelina infected grape plant assessed as disease severity at internodes at 1.19 kg a.i./ha treated 3 to 6 hr prior to inoculation followed by 24 hr wetness period measured after 4 weeks (reference value: 2.6%). The class given is functional.
Assay [3] relates to Diaporthe ampelina. The experiment in a line: Antifungal activity against Diaporthe ampelina infected grape plant assessed as decrease in lesions on leaf at 1.19 kg a.i./ha treated 3 to 6 hr prior to inoculation followed by 24 hr wetness period measured after 4 weeks relative to control. The class given is functional, organism-based.
For assay [4], the system named is Diaporthe ampelina. Briefly: Antifungal activity against Diaporthe ampelina infected grape plant assessed as re-isolation of mycelium from infected vines at 1.19 kg a.i./ha treated for weeks in presence of stylet oil followed by inoculation on medium measured after 72 hr (reference value: 62.5%). The class given is functional.
Assay [5] has as its system Diaporthe ampelina. The experiment in a line: Antifungal activity against Diaporthe ampelina infected grape plant assessed as re-isolation of mycelium from infected vines at 1.19 kg a.i./ha treated for weeks in presence of regulaid followed by inoculation on medium measured after 72 hr (reference value: 62.5%). In kind it is functional.
For assay [6], the system named is Diaporthe ampelina. The experiment in a line: Antifungal activity against Diaporthe ampelina infected grape plant assessed as disease severity at internodes at 1.19 kg a.i./ha treated 3 to 6 hr prior to inoculation followed by 24 hr wetness period measured after 4 weeks in presence of stylet-oil(reference value: 2.9%). The class given is functional.
Assay [7] concerns Diaporthe ampelina. Briefly: Antifungal activity against Diaporthe ampelina infected grape plant assessed as disease severity at internodes at 1.19 kg a.i./ha treated 3 to 6 hr prior to inoculation followed by 24 hr wetness period measured after 4 weeks in presence of regulaid (reference value: 2.9%). The class given is functional.
The test system of assay [8] is Diaporthe ampelina. The experiment in a line: Antifungal activity against Diaporthe ampelina infected grape plant assessed as decrease in lesions on leaf at 1.19 kg a.i./ha treated 3 to 6 hr prior to inoculation followed by 24 hr wetness period measured after 4 weeks relative to control in presence of stylet oil. In kind it is functional, organism-based.
The subject of assay [9] is Diaporthe ampelina. Briefly: Antifungal activity against Diaporthe ampelina infected grape plant assessed as decrease in lesions on leaf at 1.19 kg a.i./ha treated 3 to 6 hr prior to inoculation followed by 24 hr wetness period measured after 4 weeks relative to control in presence of regulaid. The class given is functional, organism-based.
Assay [10] has as its system Diaporthe ampelina. The experiment in a line: Antifungal activity against Diaporthe ampelina infected grape plant assessed as disease severity at internodes at 1.19 kg a.i./ha incubated for 20 hr prior to treatment with 16 hr wetness period and 4 hr drying time measured after 4 weeks in presence of stylet oil(reference value: 7.3%). The class given is functional.
The subject of assay [11] is Diaporthe ampelina. The experiment in a line: Antifungal activity against Diaporthe ampelina infected grape plant assessed as disease severity at internodes at 1.19 kg a.i./ha incubated for 20 hr prior to treatment with 16 hr wetness period and 4 hr drying time measured after 4 weeks in presence of regulaid (reference value: 7.3%). In kind it is functional.
Assay [12] has as its system Diaporthe ampelina. Briefly: Antifungal activity against Diaporthe ampelina infected grape plant assessed as decrease in lesions on leaf at 1.19 kg a.i./ha incubated for 20 hr prior to treatment with 16 hr wetness period and 4 hr drying time measured after 4 weeks relative to control in presence of stylet oil. The class given is functional, organism-based.
Assay [13] concerns Diaporthe ampelina. The experiment in a line: Antifungal activity against Diaporthe ampelina infected grape plant assessed as decrease in lesions on leaf at 1.19 kg a.i./ha incubated for 20 hr prior to treatment with 16 hr wetness period and 4 hr drying time measured after 4 weeks relative to control in presence of regulaid. The class given is functional, organism-based.
In assay [14] the test system is Diaporthe ampelina. The experiment in a line: Antifungal activity against Diaporthe ampelina infected grape plant assessed as disease severity at internodes at 2.6 kg/ha incubated for 24 hr prior to treatment with 20 hr wetness period followed by 4 hr drying period measured after 4 weeks in presence of stylet oil(reference value: 3.2%). In kind it is functional.

Assay [15] relates to Diaporthe ampelina. Briefly: Antifungal activity against Diaporthe ampelina infected grape plant assessed as disease severity at internodes at 2.6 kg/ha incubated for 24 hr prior to treatment with 20 hr wetness period followed by 4 hr drying period measured after 4 weeks in presence of regulaid (reference value: 3.2%). The class given is functional.
The subject of assay [16] is Diaporthe ampelina. Briefly: Antifungal activity against Diaporthe ampelina infected grape plant assessed as decrease in lesions on leaf at 2.6 kg/ha incubated for 24 hr prior to treatment with 20 hr wetness period followed by 4 hr drying period measured after 4 weeks relative to control in presence of stylet oil. In kind it is functional, organism-based.
Assay [17] relates to Diaporthe ampelina. The experiment in a line: Antifungal activity against Diaporthe ampelina infected grape plant assessed as decrease in lesions on leaf at 2.6 kg/ha incubated for 24 hr prior to treatment with 20 hr wetness period followed by 4 hr drying period measured after 4 weeks relative to control in presence of regulaid. The class given is functional, organism-based.

Assay [18] concerns Diaporthe ampelina. The experiment in a line: Antifungal activity against Diaporthe ampelina infected grape plant assessed as disease severity at internodes at 1.19 kg a.i./ha incubated for 24 hr prior to treatment with 20 hr wetness period followed by 4 hr drying period measured after 4 weeks in presence of stylet oil(reference value: 4.7%). The class given is functional.
The subject of assay [19] is Diaporthe ampelina. The experiment in a line: Antifungal activity against Diaporthe ampelina infected grape plant assessed as disease severity at internodes at 1.19 kg a.i./ha incubated for 24 hr prior to treatment with 20 hr wetness period followed by 4 hr drying period measured after 4 weeks in presence of regulaid (reference value: 4.7%). In kind it is functional.

Assay [20] concerns Diaporthe ampelina. The experiment in a line: Antifungal activity against Diaporthe ampelina infected grape plant assessed as decrease in lesions on leaf at 1.19 kg a.i./ha incubated for 24 hr prior to treatment with 20 hr wetness period followed by 4 hr drying period measured after 4 weeks relative to control in presence of stylet oil. The class given is functional, organism-based.

Assay [21] deals with Diaporthe ampelina. The experiment in a line: Antifungal activity against Diaporthe ampelina infected grape plant assessed as decrease in lesions on leaf at 1.19 kg a.i./ha incubated for 24 hr prior to treatment with 20 hr wetness period followed by 4 hr drying period measured after 4 weeks relative to control in presence of regulaid. In kind it is functional, organism-based.

The subject of assay [22] is Diaporthe ampelina. Briefly: Antifungal activity against Diaporthe ampelina infected grape plant assessed as disease severity at internodes at 1.19 kg a.i./ha incubated for 48 hr prior to treatment with 24 hr wetness period followed by 24 hr of drying period measured after 4 weeks in presence of stylet oil (reference value: 12.2%). In kind it is functional.
For assay [23], the system named is Diaporthe ampelina. Briefly: Antifungal activity against Diaporthe ampelina infected grape plant assessed as disease severity at internodes at 1.19 kg a.i./ha incubated for 48 hr prior to treatment with 24 hr wetness period followed by 24 hr of drying period measured after 4 weeks in presence of regulaid (reference value: 12.2%). In kind it is functional.
The subject of assay [24] is Diaporthe ampelina. Briefly: Antifungal activity against Diaporthe ampelina infected grape plant assessed as decrease in lesions on leaf at 1.19 kg a.i./ha incubated for 48 hr prior to treatment with 24 hr wetness period followed by 24 hr of drying period measured after 4 weeks relative to control in presence of stylet oil. In kind it is functional, organism-based.

The structures appear in SMILES notation. Calls of active or inactive are those of the source. No cut-off for these calls is given here.

For `COC(=O)NC(=S)Nc1ccccc1NC(=S)NC(=O)OC` [THIOPHANATE METHYL], the result in [1], in [12], in assay [13], in [16], in assay [17] and in [20] was inactive. Further, the outcome in assay [21] and in assay [24] was inactive. The Activity is given as 0.1% in assay [2]; 41.1% in [4]; 37.1% in assay [5]; 2% in [6]; 1% in assay [7]; 7.5% in [10]. In addition, the Activity in [11] is given as 4%; in [14], 1.8%; in assay [15] it was 0.7%; in assay [18], 0.7%; in assay [19], 3.3%; in [22], 5.1%. Further, the Activity in [23] is 3.8%. Also, the result in assay [3], in assay [8] and in assay [9] was Active.
